According to patent US6660473B1, “C-terminal protein tagging” (Phylos, Inc., priority 1999, dated 2003):

Legend:
[1] = target: ribosomal peptidyl transferase; conditions: ribosomal peptidyl transferase site; cited from earlier work
[2] = system: stalled translation reaction (10Fn3-dA30 in rabbit reticulocyte lysate); conditions: labeling as in the myc experiment; Co2+-NTA purification
[3] = system: stalled translation reaction (myc-dA30 in rabbit reticulocyte lysate); conditions: 130 μM added to stalled translation reaction; 500 mM KCl, 20 mM MgCl2; anti-myc immunoprecipitation
From the text: Myc dsDNA was generated by standard methods of PCR to include a 5′-T7 promoter for in vitro synthesis of mRNA using T7 polymerase and a deletion mutant of the tobacco mosaic virus 5′-UTR to induce efficient translation initiation in rabbit reticulocyte lysates. The 3′-end of the myc construct was devoid of stop codons to prevent protein release from the ribosome.
Transcription of the myc PCR product (using the MegaSHORTscript kit, Ambion) gave large quantities of RNA using T7 RNA polymerase. Purified RNA was then subjected to a splinted ligation reaction with a 5′-phosphorylated dA30 oligonucleotide catalyzed by T4 DNA ligase. The 3′-dA30 region facilitates ribosomal stalling and thereby increases the proportion of RNA-ribosome-protein complexes available for labeling. The purified myc-dA30 construct was then translated in rabbit reticulocyte lysate (Ambion) with ^35S-methionine and stalled under high salt conditions (500 mM KCl, 20 mM MgCl2).
Biotin-TEG-dCdCdA was used as a control. The radiolabled myc peptide was then isolated by immunoprecipitation with an anti-myc monoclonal antibody (Chemicon) and protein A sepharose (Sigma). Control and C-terminally-labeled peptide were then applied to a microscope slide prefunctionalized with NeutrAvidin™ (Pierce).

| Compound | Kd of unmodified puromycin [1] | immobilization of radiolabeled 10Fn3 on NeutrAvidin-spotted chip (phosphorimaging) [2] | immobilization of 35S-labeled myc epitope on NeutrAvidin slide (phosphorimaging) [3] |
| --- | --- | --- | --- |
| COc1ccc(C[C@H](N)C(=O)N[C@H]2[C@@H](O)[C@H](n3cnc4c(N(C)C)ncnc43)O[C@@H]2CO)cc1 [puromycin] | in the micromolar range |  |  |
| Biotin-TEG-dCdC-puromycin |  | presence of radiolabeled ^10Fn3 | biotin-dependent immobilization of myc epitope to the chip surface |
| Biotin-TEG-dCdCdA |  |  | no significant label |
